From the NIST ThermoML archive (doi:10.1016/j.jct.2008.11.012)
± gives the expanded uncertainty stated by the source.

Test: xn = mol fraction of the nth substance listed
Details: 101 kPa, Liquid; for viscosity: Concentric cylinders viscometry; for mass density: Vibrating tube method

NCCNCCN [di(2-aminoethyl)amine] + O
Details | mass density, 293.15 K [kg/m3] | mass density, 303.15 K [kg/m3] | mass density, 313.15 K [kg/m3] | mass density, 323.15 K [kg/m3] | viscosity, 293.15 K [mPa·s] | viscosity, 303.15 K [mPa·s] | viscosity, 313.15 K [mPa·s] | viscosity, 323.15 K [mPa·s]
x1 = 0.0095 | 1001.5 ± 1 | 998.6 ± 1 | 994.9 ± 1 | 990.5 ± 1 | 1.31 ± 0.053 | 1.017 ± 0.042 | 0.8263 ± 0.034 | 0.6854 ± 0.028
x1 = 0.0299 | 1004.2 ± 1 | 1000.7 ± 1 | 996.7 ± 1 | 991.7 ± 1 | 2.076 ± 0.084 | 1.557 ± 0.063 | 1.223 ± 0.05 | 0.9871 ± 0.04
x1 = 0.0565 | 1011.5 ± 1 | 1007.1 ± 1 | 1002.2 ± 1 | 996.8 ± 1 | 4.009 ± 0.16 | 2.841 ± 0.12 | 2.101 ± 0.085 | 1.615 ± 0.066
x1 = 0.0696 | 1014.5 ± 1 | 1009.6 ± 1 | 1004.3 ± 1 | 998.6 ± 1 | 5.418 ± 0.22 | 3.736 ± 0.15 | 2.684 ± 0.11 | 2.012 ± 0.082
x1 = 0.1043 | 1023.8 ± 1 | 1017.1 ± 1 | 1010.7 ± 1 | 1004.2 ± 1 | 11.63 ± 0.47 | 7.329 ± 0.3 | 4.877 ± 0.2 | 3.423 ± 0.14
x1 = 0.125 | 1026.5 ± 1 | 1019.8 ± 1 | 1012.9 ± 1 | 1005.7 ± 1 | 17.94 ± 0.73 | 10.57 ± 0.43 | 6.69 ± 0.27 | 4.514 ± 0.18
x1 = 0.1591 | 1030.7 ± 1 | 1023 ± 1 | 1015.4 ± 1 | 1007.9 ± 1 | 31.07 ± 1.3 | 16.94 ± 0.69 | 10.13 ± 0.41 | 6.505 ± 0.26
x1 = 0.2076 | 1029.4 ± 1 | 1021.4 ± 1 | 1013.2 ± 1 | 1004.8 ± 1 | 50.68 ± 2 | 25.63 ± 1 | 14.34 ± 0.58 | 8.733 ± 0.35
x1 = 0.2449 | 1027.5 ± 1 | 1018.6 ± 1 | 1009.9 ± 1 | 1001.9 ± 1 | 59.62 ± 2.4 | 29.47 ± 1.2 | 16.2 ± 0.66 | 9.728 ± 0.39
x1 = 0.3099 | 1019.1 ± 1 | 1010.2 ± 1 | 1001.5 ± 1 | 993.1 ± 1 | 59.42 ± 2.4 | 29.55 ± 1.2 | 16.32 ± 0.66 | 9.836 ± 0.4
x1 = 0.3438 | 1014.1 ± 1 | 1005.7 ± 1 | 997.1 ± 1 | 988.4 ± 1 | 55.52 ± 2.2 | 27.97 ± 1.1 | 15.61 ± 0.63 | 9.492 ± 0.38
x1 = 0.4112 | 1004.1 ± 1 | 995 ± 1 | 986.4 ± 1 | 978 ± 1 | 43.08 ± 1.7 | 22.7 ± 0.92 | 12.99 ± 0.53 | 8.14 ± 0.33
x1 = 0.4974 | 992.8 ± 1 | 983.7 ± 1 | 975.1 ± 1 | 966.8 ± 1 | 30.13 ± 1.2 | 16.77 ± 0.68 | 10.17 ± 0.41 | 6.622 ± 0.27
x1 = 0.6111 | 979 ± 1 | 970.6 ± 1 | 962.1 ± 1 | 953.7 ± 1 | 19.46 ± 0.79 | 11.54 ± 0.47 | 7.375 ± 0.3 | 5.032 ± 0.2
x1 = 0.6988 | 971.8 ± 1 | 962.7 ± 1 | 954.2 ± 1 | 945.9 ± 1 | 15.12 ± 0.61 | 9.116 ± 0.37 | 5.944 ± 0.24 | 4.175 ± 0.17
x1 = 0.8073 | 963.4 ± 1 | 954.3 ± 1 | 947.3 ± 1 | 939.1 ± 1 | 10.61 ± 0.43 | 6.899 ± 0.28 | 4.741 ± 0.19 | 3.445 ± 0.14
x1 = 0.8954 | 957.5 ± 1 | 948.4 ± 1 | 939.8 ± 1 | 931.5 ± 1 | 8.515 ± 0.34 | 5.713 ± 0.23 | 4.017 ± 0.16 | 2.976 ± 0.12
x1 = 1 | 951 ± 1 | 942.3 ± 1 | 933.8 ± 1 | 925.5 ± 1 | 7.038 ± 0.28 | 4.804 ± 0.19 | 3.4 ± 0.14 | 2.695 ± 0.11
